Source: publication PMC11714206, “Massively Parallel Screening of Toll/Interleukin‐1 Receptor (TIR)‐Derived Peptides Reveals Multiple Toll‐Like Receptors (TLRs)‐Targeting Immunomodulatory Peptides” (Advanced Science, 2024)
Where “and” joins values, the source holds several entries; their conditions need not be identical. Equal entries are not always repeated.

Biological target: T1, MAL^TIR (Homo sapiens, UniProt P58753)
T1 construct: MAL (residues 79–221); 6xHis; made in house; host or cells: E. coli BL21 (DE3)
T1 sequence (P58753 79-221): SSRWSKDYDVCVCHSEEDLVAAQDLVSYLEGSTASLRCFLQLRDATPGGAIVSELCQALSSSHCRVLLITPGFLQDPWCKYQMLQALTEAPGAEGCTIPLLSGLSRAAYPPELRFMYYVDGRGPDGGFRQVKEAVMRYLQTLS
Assay: T‐Surf phage library (P8 and P3) selection against MAL^TIR, four rounds, NGS read counts
Format: binding
Settings: for P3_MAL Rank (after) / P3_MAL Rank (before): P3 library; for Population: 4th round of selection against MAL TIR, share of NGS reads; for P8_MAL Rank (after) / P8_MAL Rank (before): P8 library
Outline: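 Read counts come from NGS of phage pools enriched over four selection rounds on the plate‐coated TIR domain (5 µg mL^−1). Each round: 1 h phage binding at room temperature after 0.2% BSA blocking, Tween washes, acid elution, amplification in E. coli TG1 with M13KO7 helper.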

[1] = P8_MAL: rank by count after grouping
[2] = P8_MAL: rank by count before grouping
[3] = P3_MAL: rank by count after grouping
[4] = P3_MAL: rank by count before grouping
[5] = selection against MAL, rank by count after grouping
[6] = selection against MAL, rank by count before grouping
[7] = P3_MAL pool: P3 T-Surf phage library
[8] = selection against MAL, rank after grouping
[9] = selection against MAL, rank before grouping
[10] = selection against MAL TIR, rank by count after grouping
[11] = selection against MAL TIR, rank by count before grouping
[12] = 4R selection against MAL, rank after grouping
[13] = 4R selection against MAL, rank before grouping
[14] = P8_MAL pool: P8 T-Surf phage library

Substance: AFFCAQLKRVLGNPTM
- Rank (after) [1]: 102
- Rank (before) [2]: 1724

Substance: NGHGSAIIKEIVVTSW
- Rank (after) [3]: 468
- Rank (before) [4]: 3252

Substance: YAFTRHLHRYLVHRGV
- P3_MAL Rank (after) [5]: 714
- P3_MAL Rank (before) [6]: 1466

Substance: VEPTQVRKLRGAVEKV
- P3_MAL Rank (after) [5]: 743
- P3_MAL Rank (before) [6]: 1658

Substance: YAFTGHLRRYLVQRGV
- Population [7]: 0.00338%

Substance: YAFTGHLHRYLLQRGG
- P3_MAL Rank (after) [8]: 543
- P3_MAL Rank (before) [9]: 1418

Substance: SSWWILKELQEILNYQ
- P8_MAL Rank (after) [10]: 279
- P8_MAL Rank (before) [11]: 2529

Substance: SFLYTLLSNLTHPTNF
- P8_MAL Rank (after) [10]: 265
- P8_MAL Rank (before) [11]: 1449

Substance: LFFGKALNSCCVAIA
- P8_MAL Rank (after) [12]: 649
- P8_MAL Rank (before) [13]: 2136

Substance: WFMNVW*A*FCVIPKX
- Population [14]: 0.00432%

Substance: WFYESLVSLILRDTIV
- Rank (after) [1]: 122
- Rank (before) [2]: 1299

Substance: SSFRNDLWRLLELSKK
- Rank (after) [3]: 419
- Rank (before) [4]: 3195

Substance: YAFTGHLHHYLVQRGV
- Population [7]: 0.00564%

Substance: SLCKNLVTNLIEEFNR
- Rank (after) [3]: 456
- Rank (before) [4]: 3062

Substance: KLLWEKCTFFLPSLSR
- Rank (after) [1]: 429
- Rank (before) [2]: 2726

Substance: NQLRTALTAAANLSGW
- P3_MAL Rank (after) [10]: 267
- P3_MAL Rank (before) [11]: 3324

Substance: WFYERLVSLMLRDKKV
- Rank (after) [1]: 172
- Rank (before) [2]: 1269

Substance: YAFTGHLHRYLVQCGV
- Population [7]: 0.00338%

Substance: SFFWNKLRYALTYRPAT
- Rank (after) [3]: 437
- Rank (before) [4]: 2995

Substance: YQWRNALTAAANLSGW
- Population [7]: 0.00676%

Substance: AFFWAQLKSGLGNPTK
- Rank (after) [1]: 186
- Rank (before) [2]: 1639

Substance: AFLYTFLINLTPPTEY
- Rank (after) [1]: 401
- Rank (before) [2]: 1858

Substance: WFYERLLNLILRDTKV
- Rank (after) [1]: 96
- Rank (before) [2]: 1250

Substance: RSLRERLWRLLALSKK
- P3_MAL Rank (after) [8]: 577
- P3_MAL Rank (before) [9]: 2628

Substance: WSYERLVRLILRDTKV
- P8_MAL Rank (after) [8]: 539
- P8_MAL Rank (before) [9]: 1406

Substance: KMQKWKDALTKVASL
- P3_MAL Rank (after) [12]: 673
- P3_MAL Rank (before) [13]: 3697

Substance: DPKLNTGESIAPELLR
- P8_MAL Rank (after) [8]: 493
- P8_MAL Rank (before) [9]: 1991

Substance: ESILTKLRRSSQSIAN
- P3_MAL Rank (after) [12]: 597
- P3_MAL Rank (before) [13]: 2045

Substance: YTALTNSGFHAFSDKD
- Rank (after) [1]: 456
- Rank (before) [2]: 1556

Substance: WFFEPLVILIPRDTKV
- Rank (after) [1]: 411
- Rank (before) [2]: 1115

Substance: TFLIHQNNARMHANIL
- P8_MAL Rank (after) [10]: 253
- P8_MAL Rank (before) [11]: 2545

Substance: AFFWAQLKSVLQSDD
- P8_MAL Rank (after) [5]: 679
- P8_MAL Rank (before) [6]: 1635

Substance: SNLRPKVLNYLMRTKI
- P3_MAL Rank (after) [8]: 531
- P3_MAL Rank (before) [9]: 1326

Substance: SLRKNLVRNLIEEFNR
- P3_MAL Rank (after) [5]: 759
- P3_MAL Rank (before) [6]: 3094

Substance: VFFWAQLKKVLRNPTR
- P8_MAL Rank (after) [12]: 627
- P8_MAL Rank (before) [13]: 1563

Substance: WHFHLRLRMPDPLQKI
- Rank (after) [3]: 432
- Rank (before) [4]: 1297

Substance: YAFTGHLHRYLVQRSGI
- P3_MAL Rank (after) [10]: 203
- P3_MAL Rank (before) [11]: 733

Substance: AFFWAHLRTVLGKPTI
- P8_MAL Rank (after) [8]: 529
- P8_MAL Rank (before) [9]: 1657

Substance: YAFTGHVPGYLVQRGV
- P3_MAL Rank (after) [5]: 757
- P3_MAL Rank (before) [6]: 1361

Substance: CLLKWKEALHQFHSGV
- Rank (after) [3]: 447
- Rank (before) [4]: 1216

Substance: QLIQQWSELHLHQLQL
- Rank (after) [1]: 443
- Rank (before) [2]: 2381

Substance: RLLKWKKRCISFIAG
- Rank (after) [3]: 400
- Rank (before) [4]: 2492

Substance: VRVVDDGSVSPLEM
- P3_MAL Rank (after) [8]: 512
- P3_MAL Rank (before) [9]: 1691

Substance: AFMYTFLINLTHPNNF
- P8_MAL Rank (after) [5]: 681
- P8_MAL Rank (before) [6]: 1923

Substance: DFSHFWLFEAGGDAAI
- P8_MAL Rank (after) [8]: 532
- P8_MAL Rank (before) [9]: 1981

Substance: WFYERLVSHMLRDTKV
- Rank (after) [1]: 179
- Rank (before) [2]: 1232

Substance: LFFWASLKNLLRSAGS
- Rank (after) [1]: 389
- Rank (before) [2]: 2066

Substance: PNLRTKVPDYLKRTKT
- P3_MAL Rank (after) [12]: 608
- P3_MAL Rank (before) [13]: 2730

Substance: RSFVAYLFQALANKGI
- Population [14]: 0.0034%

Substance: RNFVADLFPALPNKGI
- P8_MAL Rank (after) [8]: 566
- P8_MAL Rank (before) [9]: 2232

Substance: RLLKWWDSLTQASNI
- P3_MAL Rank (after) [5]: 727
- P3_MAL Rank (before) [6]: 2485

Substance: KNLFNEMVSKNIRTYM
- P3_MAL Rank (after) [8]: 567
- P3_MAL Rank (before) [9]: 3780

Substance: FMSHLYQGLKNRGI
- Rank (after) [3]: 165
- Rank (before) [4]: 499

Substance: FMSHLYQGLKNRGIFTF
- Rank (after) [3]: 113
- Rank (before) [4]: 201

Substance: LFFWDSLKQLLRSAGR
- P8_MAL Rank (after) [8]: 564
- P8_MAL Rank (before) [9]: 2069

Substance: SFFWNKLRYHLQAKDH
- P3_MAL Rank (after) [8]: 572
- P3_MAL Rank (before) [9]: 3010

Substance: WFYERLVSLLMRDTKV
- Rank (after) [1]: 152
- Rank (before) [2]: 1193

Substance: AFFWAQLKSVLGNPTM
- Population [14]: 0.00371% and 0.00278%

Substance: LVVQENLKQLLLFGGL
- P3_MAL Rank (after) [5]: 745
- P3_MAL Rank (before) [6]: 2091

Substance: WFYERLLTVIDRDTEV
- P8_MAL Rank (after) [8]: 500
- P8_MAL Rank (before) [9]: 1159

Substance: FISHLYAALQRKHVET
- Rank (after) [3]: 96
- Rank (before) [4]: 96

Substance: RLLKCTEALHQFHNWV
- P3_MAL Rank (after) [8]: 566
- P3_MAL Rank (before) [9]: 2482

Substance: YFLLFVLFGRSAIGSM
- P8_MAL Rank (after) [5]: 713
- P8_MAL Rank (before) [6]: 1459

Substance: PNLRTKVMNYLIRTKP
- P3_MAL Rank (after) [12]: 643
- P3_MAL Rank (before) [13]: 2733

Substance: WFYERLVSMITRDTNV
- P8_MAL Rank (after) [8]: 486
- P8_MAL Rank (before) [9]: 1271

Substance: PNLRTKVLNYLMRNKT
- Population [7]: 0.00526%

Substance: AFLYTFLINLTRQTNF
- Rank (after) [1]: 147
- Rank (before) [2]: 1837

Substance: TFLGHLYNALVQAGKL
- P8_MAL Rank (after) [10]: 230
- P8_MAL Rank (before) [11]: 2583

Substance: SSFTSHLYDRLQRSGI
- P3_MAL Rank (after) [10]: 224
- P3_MAL Rank (before) [11]: 3203

Substance: SEFIQKIILWMNQQIV
- Rank (after) [1]: 441
- Rank (before) [2]: 2482

Substance: CRFRQGLWRLLELSKK
- P3_MAL Rank (after) [12]: 611
- P3_MAL Rank (before) [13]: 1323

Substance: EWIREQLRRSSQSIAN
- P3_MAL Rank (after) [10]: 222
- P3_MAL Rank (before) [11]: 801

Substance: AFLYTFDQSDPSDQF
- P8_MAL Rank (after) [8]: 509
- P8_MAL Rank (before) [9]: 1822

Substance: KMQKWKDALYEAANE
- P3_MAL Rank (after) [12]: 614
- P3_MAL Rank (before) [13]: 3674

Substance: YAFTSHLSRYLVQRGV
- P3_MAL Rank (after) [10]: 223
- P3_MAL Rank (before) [11]: 1476

Substance: LFFWESLKQLLRSAGR
- Population [14]: 0.0034%

Substance: TYLGNLNNALVQAGIH
- P8_MAL Rank (after) [8]: 490
- P8_MAL Rank (before) [9]: 2649

Substance: WFFDGLVSLFLGDTKL
- P8_MAL Rank (after) [8]: 537
- P8_MAL Rank (before) [9]: 1112

Substance: ALQYTILINLTNPTNF
- P8_MAL Rank (after) [12]: 665
- P8_MAL Rank (before) [13]: 1962

Substance: PNLSPKVLNYLMRTKT
- Rank (after) [3]: 181
- Rank (before) [4]: 2751

Substance: WFYKPLVSLILRDTKA
- P8_MAL Rank (after) [12]: 619
- P8_MAL Rank (before) [13]: 1307

Substance: WFYERLVRLILRDTKA
- Rank (after) [1]: 174
- Rank (before) [2]: 1185
